Results from PubChem BioAssay (NCI).
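Grown in 96-well plates, cells were treated for 48 hours with each compound at five concentrations. Insufficient inhibition: endpoint recorded as highest concentration tested. GI50: concentration for 50% inhibition of growth. TGI: total growth inhibition.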

Assays:
Assay in all cases: growth of human tumour cells (NCI), 48 h
SNB-75 CNS = test system: SNB-75 CNS
SF-268 CNS = test system: SF-268 CNS
HT29 colon = test system: HT29 colon
ACHN renal = test system: ACHN renal
SF-295 CNS = test system: SF-295 CNS
SNB-19 CNS = test system: SNB-19 CNS
MOLT-4 leukemia = test system: MOLT-4 leukemia
SW-620 colon = test system: SW-620 colon
LOX IMVI melanoma = test system: LOX IMVI melanoma
EKVX NSCLC = test system: EKVX NSCLC

Row | SMILES | GI50 (SNB-75 CNS) [µM] | TGI (SNB-75 CNS) [µM] | GI50 (SF-268 CNS) [µM] | TGI (SF-268 CNS) [µM] | GI50 (HT29 colon) [µM] | TGI (HT29 colon) [µM] | GI50 (ACHN renal) [µM] | TGI (ACHN renal) [µM] | GI50 (SF-295 CNS) [µM] | TGI (SF-295 CNS) [µM] | GI50 (SNB-19 CNS) [µM] | TGI (SNB-19 CNS) [µM] | GI50 (MOLT-4 leukemia) [µM] | GI50 (SW-620 colon) [µM] | TGI (SW-620 colon) [µM] | GI50 (LOX IMVI melanoma) [µM] | TGI (LOX IMVI melanoma) [µM] | GI50 (EKVX NSCLC) [µM] | TGI (EKVX NSCLC) [µM] | TGI (MOLT-4 leukemia) [µM]
1 | COc1ccc(OC(=O)O[C@H]2[C@H](O[C@H]3[C@@H](O)COC(O[C@H]4C[C@H]5[C@@H]6CC=C7C[C@@H](O)CC[C@]7(C)[C@H]6CC[C@]5(C)[C@H]4[C@H](C)C(=O)CCC(C)C)[C@@H]3OC(C)=O)OC[C@@H](O)[C@@H]2O)cc1 (stereo not given in full) | < 0.01 | 10.9 | 0.042 | 6.99 | 0.541 | 18.1 | 0.496 | 18 | < 0.01 | 0.0193 | 0.0857 | 6.56 | 0.0153 | 0.0295 | 1.13 | 0.0265 | 0.177 | 1.64 | 19.6 | –
2 | COc1ccc(C(=O)O)c(Cc2cccc3ccccc23)c1 | – | > 100 | – | > 100 | – | > 100 | – | > 100 | – | > 100 | – | > 100 | – | – | > 100 | – | > 100 | – | > 100 | > 100
3 | Cc1cccc(N2C(=O)C(Cl)=C(Cl)C2=O)c1 | – | > 100 | – | > 100 | – | > 100 | – | > 74.6 | – | > 100 | – | > 100 | – | – | > 60.7 | – | > 100 | – | > 100 | > 75.8
4 | CC[C@H](C)[C@H](NC(=O)[C@H]1CCCCN1C)C(=O)N(C)[C@H](CCc1nc(C(=O)N[C@@H](Cc2ccccc2)C[C@H](C)C(=O)OC)cs1)C(C)C | 0.276 | 7.65 | 1.03 | > 25 | 0.202 | 3.06 | 1.75 | > 25 | 0.459 | > 25 | 0.151 | > 25 | 0.727 | 0.213 | > 25 | 0.353 | > 25 | 1.11 | > 25 | > 25
5 | O=c1[nH]c(=O)n(C2CC(O)C(CS)O2)cc1F (stereo not given) | – | > 100 | – | > 100 | – | > 100 | – | > 92.4 | – | > 100 | – | > 100 | – | – | > 100 | – | > 100 | – | > 100 | > 100
6 | CCCNC(=S)N/N=C(\C)c1ccccn1 | 1.5 | > 25.7 | 0.226 | > 51.1 | < 0.0127 | > 100 | 0.0394 | > 100 | 0.294 | > 100 | 1.81 | > 100 | 0.0524 | 0.0498 | > 100 | 0.0436 | > 100 | 0.119 | > 100 | 0.816
7 | COc1ccc(C2CC(=O)c3c(O)c(OC)c(OC)c(OC)c3O2)c(O)c1 (stereo not given) | 0.0625 | 0.858 | 0.534 | 38.3 | 2.64 | > 100 | 1.2 | 58.2 | 0.349 | 14.6 | 0.384 | > 100 | 1.65 | 0.0484 | 21.4 | 0.432 | 19.2 | 0.232 | 88.8 | 29.6
8 | Cc1cc(NS(=O)(=O)c2ccc(NC(=O)c3cccc4c(=O)c5ccccc5[nH]c34)cc2)no1 | – | 85.4 | – | > 100 | – | > 100 | – | > 100 | – | – | – | > 100 | – | – | > 100 | – | > 100 | – | > 100 | > 100
9 | O=S(O)CCCCSSCCCCSSCCCCS(=O)O | – | > 100 | – | > 100 | – | – | – | > 100 | – | > 100 | – | > 100 | – | – | > 100 | – | > 100 | – | 66.3 | 43.9
10 | O=C(C[C@@H](C(=O)NCc1cccc(C(F)(F)F)c1)N1C(=O)[C@@H](N2C(=O)OC[C@@H]2c2ccccc2)[C@H]1/C=C/c1ccccc1)NC1CCN(Cc2ccccc2)CC1 | 6.21 | 23 | 3.81 | 21.4 | 1.67 | 3.53 | 31.2 | > 100 | 15.6 | 30.8 | 9.33 | 36.5 | 1.59 | 3.91 | 17.3 | 4.03 | 18.9 | 15.1 | 41.7 | 6.79
11 | CC(=O)[O][Hg][c]1c(C)c(C)c(C)c(C)c1C | 1.75 | 3.33 | 0.549 | 2.11 | 2.02 | 4.77 | 10 | 23.1 | 1.71 | 3.76 | 1.48 | 2.89 | 0.223 | – | – | 1.29 | 2.82 | 1.89 | 3.54 | 1.11
12 | O=C(O)c1cc(N=Nc2ccc([As](=O)(O)O)cc2)ccc1O | – | > 100 | – | > 100 | – | > 100 | – | > 100 | – | > 100 | – | > 100 | – | – | > 100 | – | > 100 | – | > 100 | > 100
13 | COC(=O)[C@]12CCC(C)(C)C[C@H]1C1=CC[C@@H]3[C@@]4(C)C/C(=C/c5cccnc5)C(=O)C(C)(C)[C@@H]4CC[C@@]3(C)[C@]1(C)CC2 | 17.6 | 48.5 | 11.8 | 54 | 5 | 65.9 | 8.05 | 24.5 | 9.67 | 40.4 | 15.1 | 77.4 | 2.12 | 5.74 | 33.3 | 4.63 | 17.8 | 10.9 | 31.1 | 6.17
14 | COc1cccc(N=Cc2c3ccccc3c(=O)n3c2oc2ccccc23)c1 | 54.8 | > 100 | 37.1 | > 100 | 32.7 | > 100 | 7.11 | 30 | 4.53 | 30.1 | 52.2 | > 100 | 2.66 | 38 | > 100 | 5.13 | 30.3 | 17.3 | > 100 | 6
